Reference: patent publication US20250114377A1, “TWO-PRONGED TREATMENT FOR NIEMANN PICK TYPE C DISEASE” (UNIVERSITY OF NOTRE DAME DU LAC, priority 2022, published 2025)
“Also recorded” adds a separate entry of the source.

Experiments:
NPC mutant mice = assay: Therapeutic administration of 27-HC in two transgenic strains of mice with NPC1 mutations (summary); format: in vivo
Excerpt: Mutations in the NPC1 gene affect two independent lysosomal functions. The first is the generation of lysosomal tubules as a mechanism to deliver intracellular cholesterol to other membrane-bound compartments. Because this function is impaired in NPC disease, we investigated the protein components necessary for tubule projection. We identified 27-HC as a signaling molecule that stimulates lysosomal tubulation and is not provided properly to lysosomal membrane to elicit tubulation in NPC disease. To correct this defect, we provide pure 27-HC in a cocktail that bypasses endocytosis. […] We have also tested this therapy in two different transgenic strains of mice with NPC1 mutations. […] Because we know the molecular target for 27-HC (StARD9), we tested 27-HC treatment in mice where we removed the StARD9 gene. […] This confirms the molecular target for 27-HC treatment and is consistent with our proposed model for the defects in NPC disease. Independent of the role for NPC1 in lysosomal tubulation, NPC1 is the “receptor” for the pro-apoptotic protein STING. STING is a signaling molecule that is activated by cell insults, including defective cholesterol transport. Once STING is activated, it triggers programmed cell death pathways. Counteracting STING activation, STING is silenced by binding to lysosomes, which leads to STING degradation and inactivation of this pathway. This silencing is required to prevent STING activation to proceed long-term. We recently discovered that the “receptor” on lysosomes that drives STING silencing is also NPC1. In cells mutant for NPC1, STING silencing is impaired, thereby leading to programmed cell death. As a result, NPC1 mutations cause cell death in two different ways. They cause loss of lysosomal tubulation, and they cause perpetual activation of STING.
We further propose that NPC1 is required for two functions in cells. The first is cholesterol transport from the lysosome to ER. If this activity is impaired, cells are “starved” of cholesterol in the ER. This has consequences for cholesterol metabolism and activates STING. Second, NPC1 in the lysosome is the receptor for STING that is required for STING silencing. In the absence of NPC1, STING remains active after initial activation (Priming) but also amplifies the responses including apoptosis. The dual roles of NPC1 are consistent with results across the NPC field. First, this explains why our StARD9 (−/−) mice are less severe than NPC1 (−/−) mice. NPC1(−/−) mice cause STING activation and impair STING silencing. […] Second, NPC1 (−/−) mice are more severe than NPC1 (I1061 T/I1061 T) mice because the NPC1 […] mice must reduce STING activation and retain some STING silencing compared to nulls.

[1] = tested on: StARD9 mutant (null or truncation mutant) cells; assay: Rescue of lysosomal tubulation by 27-HC in StARD9 mutant cells (FIG. 5); format: cell-based; settings: 27-HC in a cocktail that bypasses receptor-mediated endocytosis
Excerpt: FIG. 5. Impact of NPC1 and StARD9 Mutations on Rescue of Lysosomal Tubulation by 27-Hydroxycholesterol (27-HC). The ability of 27-HC to rescue lysosomal tubulation after depletion of NPC1 (shRNA-NPC1) or StARD9 (shRNA-STARD9) was compared to cells expressing the NPC1 (I1061T)-eGFP mutant (I1061T) or a eGFP-StARD9 construct expressing amino acids 1-4483 (STARD9-ΔSTART). ***—p<0.005; ns (not significant).
To test this idea, we treated either NPC1 mutant (null or I1061T) or StARD9 mutant (null or truncation mutant) cells with 27-HC in a cocktail that delivers it into the cytoplasm independent of receptor-mediated endocytosis. […] Next, we treated NPC1(−/−) mice with 27-HC by i.p. delivery.

[2] = tested on: StARD9(−/−)/NPC1 (I1061T/I1061T) mice; assay: 27-HC treatment of mice mutant for both NPC1 and StARD9 / StARD9 knock-out mice; format: in vivo; settings: 5 mg/kg three times per week oral gavage; vs NPC1 (I1061T/I1061T) mice; p=0.0001
Method: FIG. 12. Impact of 27-HC Treatment on NPC1 (I1061T/I1061T)/StARD9 (−/−) Mice. Kaplan-Meier lifespan analysis of NPC1 (I1061T/I1061T) mice (solid line) to StARD9(−/−)/NPC1 (I1061T/I1061T) mice (dashed line) each treated with 5 mg/kg 27-HC three times per week by oral gavage.
Mutations in the NPC1 gene affect two independent lysosomal functions. The first is the generation of lysosomal tubules as a mechanism to deliver intracellular cholesterol to other membrane-bound compartments. Because this function is impaired in NPC disease, we investigated the protein components necessary for tubule projection. We identified 27-HC as a signaling molecule that stimulates lysosomal tubulation and is not provided properly to lysosomal membrane to elicit tubulation in NPC disease. To correct this defect, we provide pure 27-HC in a cocktail that bypasses endocytosis. […] We have also tested this therapy in two different transgenic strains of mice with NPC1 mutations. […] Because we know the molecular target for 27-HC (StARD9), we tested 27-HC treatment in mice where we removed the StARD9 gene. […] This confirms the molecular target for 27-HC treatment and is consistent with our proposed model for the defects in NPC disease. Independent of the role for NPC1 in lysosomal tubulation, NPC1 is the “receptor” for the pro-apoptotic protein STING. […]

[3] = two transgenic strains with NPC1 mutations

In the case of `C[C@@H](CO)CCC[C@@H](C)[C@H]1CC[C@H]2[C@@H]3CC=C4C[C@@H](O)CC[C@]4(C)[C@H]3CC[C@]12C` [27-HC, 27-hydroxycholesterol], the “Overall improvement for NPC1 mutant mice” value (NPC mutant mice; mouse, in vivo) is reported as “statistically-significant improvement”, the “Lifespan of mutant mice” value (NPC mutant mice; [3]) is reported as “extends the lifespan of mutant mice significantly” and the “Lysosomal tubulation in NPC mutant mice” value (NPC mutant mice; [3]) is reported as “rescues lysosomal tubulation”. For the same compound, the “Onset, severity and progression of NPC disease” value (NPC mutant mice; [3]) was “delays the onset, severity and progression of NPC disease”, the “Rescue of lysosomal tubulation in StARD9 mutant cells” value [1] was “not StARD9 mutant cells” and the “Benefit of 27-HC treatment (lifespan) in mice lacking StARD9” value [2] was “the benefit of the 27-HC treatment was lost; also recorded: significantly less effective; also recorded: does not provide any benefit”.
